In patent US4902791A, “Nitrosourea derivatives, process for their preparation and medicaments containing them” (Sanofi S.A., priority 1983, dated 1990):

Legend:
Format in all cases: in vivo, mouse
[1] = toxicological results, single I.P. dose, DL0 and DL50; conditions: mice; for LD50: mouse, in vivo, ip
Source text: DL0, DL50, single I.P. dose administered to the aforementioned strains of mice.

[2] = tested on: L1210 U.S.A.; test: antitumor activity on leukemia L1210 U.S.A., products of examples 33-39, I.P.
Method: The experiments were always carried out on female mice which were specific pathogen-free (S. P. F.),
either of the line DBA/2JIco
or of the line B6 D2 F1/JIco (first generation hybrids between the lines C57BL/6 and DBA/2).
On the day of the graft (by convention day 0=D0) an inoculum of 1×10^5 tumor cells in a volume of 0.2 ml is administered to each mouse by the intraperitoneal route (I.P.).
This inoculum is prepared by diluting ascites fluid taken from the peritoneum of a donor female mouse in NCTC 109 medium (Eurobio Laboratories, Paris, France), counting of the cells in a MALASSEZ cell under a microscope and adjustment of the concentration to 5×10^5cells […] by means of the same medium.
The tumor line is an American strain of the line L1210.
After the tumor graft, the mice are distributed at random in cages of 5 animals. Subsequently, these cages containing 5 mice are themselves distributed at random into a control group (control) and groups treated with the I.C. products.
(§1) The doses of the products of the invention used in the different experiments are expressed in milligrams per kilogram of body weight.
(§2) The products to be injected were dissolved in isotonic sodium chloride solution.
2 protocols for treatment were used in the different experiments:
either a single injection on D1, by the intraperitoneal (I.P.) or intravenous (I.V.) route,
(§3) or 3 I.P. injections on D1, D5, D9.
(§4) In each experiment the animals of the control group received 1 or more injections, depending on the experimental protocol used, by the same route (I.P. or I.V.) of the same volume (0.2 ml/20 g) of the vehicle without the active principle (isotonic sodium chloride solution).
(§5) the number and percentage of the total of the mice surviving to D60,
(§6) the T/C×100 for the treated groups.
(§7) T representing the mean survival time of the mice in the treated group,
(§8) C representing the mean survival time of the mice in the control group (controls).

[3] = tested on: melanoma B16; test: antitumor activity on melanoma B16, products of examples 33-39, I.P.; conditions: B6 D2 F1, I.P. D1, D5, D9, 3×10 mg/kg
Method: The experiments are always carried out on SPF female mice, B6 D2 F1/JIco (first generation hybrids between the lines C57BL/6 and DBA/2).
On the day of the graft (day 0), an inoculum of 2×10^6 tumor cells in a volume of 0.5 ml is administered to each mouse by the intraperitoneal route (I.P.). This inoculum is prepared from a sub-cutaneous tumor excised from a donor female mouse. After excision the tumor is fragmented by means of a pair of scissors in the NCTC 109 medium. After filtration through sterile gauze in order to remove large cellular fragments, the homogeneous cell suspension obtained is counted by means of a MALASSEZ cell and diluted to the desired concentration (4×10^6tumor cells per ml) by dilution with the NCTC 109 medium.
This was performed in the manner described for the leukemia L1210 (see above).
as §1, §2, §3, §4, §5, §6, §7, §8

[4] = B6 D2 F1, I.P. D1, D5, D9, 3×1.25 mg/kg
[5] = B6 D2 F1, I.P. D1, D5, D9, 3×5 mg/kg
[6] = B6 D2 F1, I.P. D1, D5, D9, 3×10 mg/kg
[7] = DBA2, I.P. D1, D5, D9, 3×5 mg/kg

Row | SMILES | DL0 [1] [mg/kg] | LD50 [1] [mg/kg] | Number of survivors [2, 4] | T/C [2, 4] | Number of survivors [2, 5] | T/C [2, 5] | Number of survivors on D60 [2, 6] | T/C [2, 6] | Number of survivors on D60 ([2]; DBA2, I.P. D1, 1×20 mg/kg) | T/C ([2]; DBA2, I.P. D1, 1×20 mg/kg) | Number of survivors on D60 [2, 7] | T/C [2, 7] | Number of survivors [3] | T/C [3]
1 | CO[C@@H]1O[C@H](C)C[C@H](NC(=O)N(CCCl)N=O)[C@H]1O [IC. 85-1591, methyl 3-[3-(2-chloroethyl) 3-nitrosoureido] 3,4,6-trideoxyβ-D-xylo-hexopyranoside] | ≥ 20 | ~40 | 0/10 | 116 | 2/10 | 217 | 8/10 | 600 | 7/10 | > 600 | 6/10 | > 600 | 3/10 | 194
2 | CO[C@H]1C[C@@H](NC(=O)N(CCCl)N=O)[C@H](O)[C@@H](CO)O1 [IC. 85-1673, methyl 3-[3-(2-chloroethyl) 3-nitrosoureido] 2,3-dideoxy β-D-arabino-hexopyranoside] | – | ~20 | 0/10 | 158 | 6/10 | 626 | – | – | – | – | – | – | 4/10 | 232
